Assay results reported in article PMC12163635, “Synthetic Retinoids for the Modulation of Genomic and Nongenomic Processes in Neurodegenerative Diseases” (ACS Omega, 2025).
Values belong to the compound of their own block, whether it stands above or below them.

Columns and labels:
Experiment in all cases: Fluorescence competition binding assay (displacement of DC271)
[1] = target: T1, RARα (Homo sapiens, UniProt P10276); conditions: for Kd / Binding KD (± SD) RARα: 100 nM RAR and DC271 on plate; for Kd: read-out: Binding KD (± SD) RARα; for ΔGEXP RARα: experimental binding free energy from K D, ΔGexp=−RT ln K, 298.1 K
T1 construct: His6-3C-NusA (cleaved yes); made in house; host or cells: E. coli BL21(DE3), pET50b vector
T1 sequence (P10276 183-417 limits assumed): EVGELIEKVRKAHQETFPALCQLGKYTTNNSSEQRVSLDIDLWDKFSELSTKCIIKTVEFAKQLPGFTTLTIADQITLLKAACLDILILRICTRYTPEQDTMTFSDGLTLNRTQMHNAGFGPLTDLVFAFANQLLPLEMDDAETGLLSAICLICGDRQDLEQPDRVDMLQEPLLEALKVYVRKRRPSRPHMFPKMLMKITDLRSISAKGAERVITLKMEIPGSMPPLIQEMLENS
Protocol: (§1) Fluorescence competition assays were employed to determine the relative binding affinities of each synthetic retinoid toward the LBD of the RARs. The assay is based on the potential for competitive displacement of the inherently fluorescent retinoid DC271 from the LBP by a test nonfluorescent synthetic retinoid. Changes in the fluorescence were measured following the addition of a serial dilution of the test compound and the results were plotted to generate a binding curve. […] Assays were performed for both RARα and RARγ. […] Nonlinear least-squares regression analyses were performed to calculate binding affinities and reported as binding K D, the equilibrium dissociation constant between the RAR isoform and the test synthetic retinoid.
(§2) RARα/γ proteins were expressed in BL21(DE3) cells (NEB) transformed into pET50b (Novagen) and pOPINS3C vectors, respectively, carrying the gene construct and containing a His6-3C-NusA tag or His6-3C-SUMO tag used for solubility. Transformations were carried out under standard conditions using Quick Transformation Protocol (New England Biolabs). Successful transformants were grown overnight in 2xYT media (Melford) and frozen for storage at −80 °C in 50% glycerol. Expression cultures were inoculated from glycerol stocks into 25 mL of 2xYT media (Melford) with 50 μg/mL kanamycin or 100 μg/mL ampicillin (Sigma-Aldrich) and grown overnight with shaking (37 °C, 150 rpm). The overnight cultures were transferred into 1 L expression flasks (2xYT/ampicillin 100 μg/mL or 2xYT/kanamycin 50 μg/mL) and grown with shaking at 37 °C, 150 rpm. Induction was carried out at an OD600 of 0.6–0.8, with 1 mL of 1 M IPTG (1 mM in culture), before shaking overnight (20 h) at 18 °C. The resulting cultures were spun down into pellets using an Avanti Hi-Speed centrifuge (JLA 8.1000, 4000 rpm, 30 min, 4 °C), before the supernatant was removed and the bacterial pellet were frozen at −80 °C.
(§3) RARα/γ (pET50b or pOPINS3C, BL21(DE3) (NEB)) were resuspended from pellet with 20 mL Wash Buffer (20 mM Tris-HCl, 300 mM NaCl and 20 mM imidazole, pH 8) and the resulting suspension was sonicated on ice (40% power, 2 min, repeated twice with 1 min rest in-between) before centrifuging (Avanti Hi-Speed JA25.50, 20,000 rpm, 1 h, 4 °C). Supernatants were clarified using 0.45 μm syringe filters (Thermo Fisher Scientific). Affinity chromatography and size-exclusion (SEC) chromatography were carried out on AKTA Pure25 (Cytiva). Supernatants were loaded onto the HisTrap HP column (5 mL, Cytiva) and washed using 25 mL of wash Buffer. The column was washed with Wash Buffer until UV trace returned to baseline, before RARα/γ was eluted using a gradient of Elution Buffer (20 mM Tris-HCl, 300 mM NaCl, 500 mM imidazole pH 8). The resulting protein-containing fractions were analyzed by SDS-PAGE (200 V, 30 min) using SurePAGE Bis-Tris 12% precast gels (Genscript). Protein concentrations were estimated using absorbance at 280 nm on a DS-11 spectrophotometer (Denovix) with calculated molecular weights and extinction coefficients (Expasy). RAR proteins were cleaved overnight from 3C-NusA tag or 3C-SUMO-His tag using 1 Unit/100 μg protein of HRV3C protease (Thermo Fisher Scientific) at 4 °C. Solution after digestion was loaded onto a HiLoad 16/600 Superdex 75 prep-grade column (Cytiva) and cleaved RARα/γ was separated from the tag based on molecular weight and eluted from the column using SEC Buffer (20 mM Tris-HCl, 300 mM NaCl and 0.5 mM TCEP, pH 8) into 2 mL fractions. The resulting protein fractions were analyzed by SDS PAGE (200 V, 30 min) using SurePAGE Bis-Tris 12% precast gels (Genscript), before being concentrated to 5 mg/mL using centrifugal concentrators (Sartorius) and frozen at −80 °C in small aliquots for use in binding assays.

[2] = system: RARα; design: species or system human; conditions: log-log plot of K D for RARα and RARγ
Protocol: as §1, §2, §3

[3] = target: T2, RARγ (Homo sapiens, UniProt P13631); conditions: for Kd / Binding KD (± SD) RARγ: 100 nM RAR and DC271 on plate; for Kd: read-out: Binding KD (± SD) RARγ; for ΔGEXP RARγ: experimental binding free energy from K D, ΔGexp=−RT ln K, 298.1 K
T2 construct: His6-3C-SUMO (cleaved yes); made in house; host or cells: E. coli BL21(DE3), pOPINS3C vector
T2 sequence (P13631 185-419 limits assumed): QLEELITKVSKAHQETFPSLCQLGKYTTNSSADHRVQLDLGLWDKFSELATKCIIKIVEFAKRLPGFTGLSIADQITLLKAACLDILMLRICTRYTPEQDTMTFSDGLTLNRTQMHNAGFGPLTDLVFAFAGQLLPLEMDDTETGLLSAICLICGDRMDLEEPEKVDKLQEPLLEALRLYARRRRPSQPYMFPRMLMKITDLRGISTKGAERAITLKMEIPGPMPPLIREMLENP
Protocol: as §1, §2, §3

RARα, sequence (P10276 182-417): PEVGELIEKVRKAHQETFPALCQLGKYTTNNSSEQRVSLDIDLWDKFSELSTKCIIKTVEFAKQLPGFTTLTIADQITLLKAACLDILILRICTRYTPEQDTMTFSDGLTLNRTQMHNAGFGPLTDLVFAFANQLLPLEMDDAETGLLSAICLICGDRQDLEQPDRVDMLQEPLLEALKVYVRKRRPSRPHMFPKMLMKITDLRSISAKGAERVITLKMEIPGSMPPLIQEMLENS

Compound: CC1(C)CCC(C)(C)c2cc(C#Cc3ccc(C(=O)O)cc3Cl)ccc21 [Compound 16, 3-Chloro-4-[2-(5,5,8,8-tetramethyl-5,6,7,8-tetrahydronaphthalen-2-yl)ethynyl]benzoic Acid]
- Kd [1]: 73.7 nM
- ΔGEXP RARα [1]: -9.79 kcal/mol
- binding preference RARα versus RARγ (from K D) [2]: bind RARγ stronger than RARα
- Kd [3]: 24.2 nM
- ΔGEXP RARγ [3]: -10.4 kcal/mol

Compound: Cc1cc2c(cc1C#Cc1ccc(C(=O)O)c(F)c1)C(C)(C)CCC2(C)C [Compound 17, 2-Fluoro-4-[2-(3,5,5,8,8-pentamethyl-5,6,7,8-tetrahydronaphthalen-2-yl)ethynyl]benzoic Acid]
- Kd [1]: 28.4 nM
- ΔGEXP RARα [1]: -10.40 kcal/mol
- binding preference RARα versus RARγ (from K D) [2]: close to the plotted line representing equal binding affinity for RARα and RARγ
- Kd [3]: 20.6 nM
- ΔGEXP RARγ [3]: -10.5 kcal/mol

Compound: COc1cc2c(cc1C#Cc1cc(F)c(C(=O)O)c(F)c1)C(C)(C)CCC2(C)C [Compound 22, 2,6-Difluoro-4-[2-(3-methoxy-5,5,8,8-tetramethyl-5,6,7,8-tetrahydronaphthalen-2-yl)ethynyl]benzoic Acid]
- Kd [1]: 105 nM
- ΔGEXP RARα [1]: -9.55 kcal/mol
- binding preference RARα versus RARγ (from K D) [2]: bind RARα preferentially over RARγ
- Kd [3]: 355 nM
- ΔGEXP RARγ [3]: -8.81 kcal/mol

Compound: COc1cc2c(cc1C#Cc1ncc(C(=O)O)cn1)C(C)(C)CCC2(C)C [Compound 29, 2-[2-(3-Methoxy-5,5,8,8-tetramethyl-5,6,7,8-tetrahydronaphthalen-2-yl)ethynyl]pyrimidine-5-carboxylic Acid]
- Binding KD (± SD) RARα [1]: noncompetitive binding
- ΔGEXP RARα [1]: Non-competitive Binding
- Binding KD (± SD) RARγ [3]: noncompetitive binding
- ΔGEXP RARγ [3]: Non-competitive Binding

Compound: Cc1sc(-c2ccc(C(=O)O)cn2)nc1-c1cnc2c(n1)C(C)(C)CCC2(C)C [Compound 41, 6-[5-Methyl-4-(5,5,8,8-tetramethyl-5,6,7,8-tetrahydroquinoxalin-2-yl)-1,3-thiazol-2-yl]pyridine-3-carboxylic Acid]
- Binding KD (± SD) RARα [1]: noncompetitive binding
- ΔGEXP RARα [1]: Non-competitive Binding
- Binding KD (± SD) RARγ [3]: noncompetitive binding
- ΔGEXP RARγ [3]: Non-competitive Binding

Compound: Cc1sc(-c2ccc(C(=O)O)cc2)nc1-c1ccc2c(c1)C(C)(C)CCC2(C)C [GZ25, reference compound]
- Kd [1]: 688 nM
- ΔGEXP RARα [1]: -7.92 kcal/mol
- Kd [3]: 335 nM
- ΔGEXP RARγ [3]: -8.84 kcal/mol

More lines, in order of falling Kd [1], values ahead:

- Kd [1]: 927 nM
- ΔGEXP RARα [1]: -8.23 kcal/mol
- Binding KD (± SD) RARγ [3]: noncompetitive binding
- ΔGEXP RARγ [3]: Non-competitive Binding
Compound: CC1(C)CCC(C)(C)c2cc(C#Cc3cnc(C(=O)O)cn3)ccc21 [Compound 25, 5-[2-(5,5,8,8-Tetramethyl-5,6,7,8-tetrahydronaphthalen-2-yl)ethynyl]pyrazine-2-carboxylic Acid]

- Kd [1]: 87.1 nM
- ΔGEXP RARα [1]: -9.64 kcal/mol
- binding preference RARα versus RARγ (from K D) [2]: bind RARα preferentially over RARγ
- Kd [3]: 254 nM
- ΔGEXP RARγ [3]: -9.00 kcal/mol
Compound: CC1(C)CCC(C)(C)c2cc(C#Cc3ccc(C(=O)O)nc3)ccc21 [Compound 24, 5-[2-(5,5,8,8-Tetramethyl-5,6,7,8-tetrahydronaphthalen-2-yl)ethynyl]pyridine-2-carboxylic Acid]

- Kd [1]: 30.9 nM
- ΔGEXP RARα [1]: -10.3 kcal/mol
- binding preference RARα versus RARγ (from K D) [2]: bind RARγ stronger than RARα
- Kd [3]: 16 nM
- ΔGEXP RARγ [3]: -10.7 kcal/mol
Compound: CC1(C)CCC(C)(C)c2cc(C#Cc3ccc(C(=O)O)cc3F)ccc21 [Compound 14, 3-Fluoro-4-[2-(5,5,8,8-tetramethyl-5,6,7,8-tetrahydronaphthalen-2-yl)ethynyl]benzoic Acid]

- Kd [1]: 18.1 nM
- ΔGEXP RARα [1]: -10.6 kcal/mol
- Kd [3]: 18.6 nM
- ΔGEXP RARγ [3]: -10.6 kcal/mol
Compound: Cc1cc2c(cc1C#Cc1ccc(C(=O)O)cc1F)C(C)(C)CCC2(C)C [Compound 18, 3-Fluoro-4-[2-(3,5,5,8,8-pentamethyl-5,6,7,8-tetrahydronaphthalen-2-yl)ethynyl]benzoic Acid]
- binding preference RARα versus RARγ (from K D) [2]: close to the plotted line representing equal binding affinity for RARα and RARγ

- Kd [1]: 15.8 nM
- ΔGEXP RARα [1]: -10.7 kcal/mol
- Kd [3]: 24.3 nM
- ΔGEXP RARγ [3]: -10.4 kcal/mol
Compound: CC1(C)CCC(C)(C)c2cc(C#Cc3ccc(C(=O)O)cn3)ccc21 [Compound 23, 6-[2-(5,5,8,8-Tetramethyl-5,6,7,8-tetrahydronaphthalen-2-yl)ethynyl]pyridine-3-carboxylic Acid]
- binding preference RARα versus RARγ (from K D) [2]: close to the plotted line representing equal binding affinity for RARα and RARγ

- Kd [1]: 13.6 nM
- ΔGEXP RARα [1]: -10.8 kcal/mol
- Kd [3]: 18.6 nM
- ΔGEXP RARγ [3]: -10.6 kcal/mol
Compound: CC1(C)CCC(C)(C)c2cc(C#Cc3ccc(C(=O)O)c(F)c3)ccc21 [Compound 13, 2-Fluoro-4-[2-(5,5,8,8-tetramethyl-5,6,7,8-tetrahydronaphthalen-2-yl)ethynyl]benzoic Acid]
- binding preference RARα versus RARγ (from K D) [2]: close to the plotted line representing equal binding affinity for RARα and RARγ

- Kd [1]: 5.72 nM
- ΔGEXP RARα [1]: -11.3 kcal/mol
- binding preference RARα versus RARγ (from K D) [2]: bind RARα preferentially over RARγ
- Kd [3]: 33.7 nM
- ΔGEXP RARγ [3]: -10.2 kcal/mol
Compound: Cc1cc2c(cc1C#Cc1cc(F)c(C(=O)O)c(F)c1)C(C)(C)CCC2(C)C [Compound 19, 2,6-Difluoro-4-[2-(3,5,5,8,8-pentamethyl-5,6,7,8-tetrahydronaphthalen-2-yl)ethynyl]benzoic Acid]

- Kd [1]: 0.37 nM
- ΔGEXP RARα [1]: -13.0 kcal/mol
- binding preference RARα versus RARγ (from K D) [2]: strongly binds both RARα and RARγ
- Kd [3]: 22.7 nM
- ΔGEXP RARγ [3]: -10.4 kcal/mol
Compound: CC1(C)CCC(C)(C)c2cc(C#Cc3cc(F)c(C(=O)O)c(F)c3)ccc21 [Compound 15, 2,6-Difluoro-4-[2-(5,5,8,8-tetramethyl-5,6,7,8-tetrahydronaphthalen-2-yl)ethynyl]benzoic Acid]
